Source: EP3797781A1, “USE OF EC-7072 AND SYNERGIC COMPOSITIONS THEREOF IN TREATMENT OF CHRONIC LYMPHOCYTIC LEUKEMIA” (priority 2019, dated 2021)

Test system: T cells isolated from patients with CLL
Test: T cell apoptosis by Annexin V/PI staining
Format: cell-based, human
Conditions: 200 nM, 24 hours; n = 3
Description: Cell viability and apoptosis were evaluated by double-staining with the mitochondrial inner transmembrane potential (ΔΨm)-sensitive dye DiOC6(3) (3,3'-dihexyloxacarbocyanine iodide; Sigma-Aldrich) and the exclusion dye propidium iodide (PI; Immunostep), allowing identification of apoptotic [DiOC6(3)^low PI^-] and dead [PI^+] cells as per Proc. Natl. Acad. Sci. U.S.A. (2014) 111(8):3020-3025 and Methods Mol. Biol. (2016) 1419:1-16. Briefly, PBMCs were resuspended in culture medium containing 20 nM DiOC6(3) and incubated for 30 minutes at 37 °C. Then, PI (1 µg/mL) was added and cells were further incubated for 10 minutes at room temperature (RT). Cells were analyzed by flow cytometry considering DiOC6(3)^+PI^- cells as viable. In some experiments, apoptosis was evaluated by staining with Annexin V/PI. […]
The induction of caspase-dependent apoptosis on primary CLL cells by EC-7072 was assessed by: • (i) incubating PBMCs isolated from patients with CLL (n = 6) following treatment with increasing concentrations of EC-7072 (0 - 400 nM) for 24 hours. Apoptosis of leukemia cells was evaluated by cytofluorometric assessment of Annexin V/PI staining to obtain percentages of apoptotic [Annexin V^+ PI^-] and dead [PI^+] cells (Figure 3A); • (ii) incubating PBMCs and T cells isolated from patients with CLL (n = 3) following treatment with EC-7072 (200 nM) for 24 hours. […]

CO[C@@H]([C@@H]1Cc2cc3cc(O[C@H]4C[C@@H](O[C@H]5C[C@@H](O)[C@H](O)[C@@H](C)O5)[C@H](O)[C@@H](C)O4)c(C)c(O)c3c(O)c2C(=O)[C@H]1O[C@H]1C[C@@H](O[C@H]2C[C@@H](O[C@H]3C[C@](C)(O)[C@H](O)[C@@H](C)O3)[C@@H](O)[C@@H](C)O2)[C@H](O)[C@@H](C)O1)[C@@H](O)C(C)=O [EC-7072, mithramycin SK]
T cell apoptosis (Annexin V/PI): no significant apoptosis
